# Like-named read-outs stand apart in the source and are kept apart here. Ends that are not written are not given here.
# Key:
# [1] = molecular target: DRB1*0701 (DR7) (Homo sapiens, UniProt P01903+P01911, A100R/A102G/A103Q/D57E/D86V/E43K/F76Y/K127E/L162R/M171V/P40G/Q125H/Q99D/R33Q/R42Y/R54Q/S133A/S66F/T210M/V115G/Y107V/Y59L/Y89S); test: Class II peptide-binding assay, DR7;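 further: unlabeled peptides compete with an iodinated probe peptide for binding to affinity-purified HLA-DR at neutral pH, DR amount titered to bind a small tracer fraction, IC50 approximating Kd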
# [2] = molecular target: T1, DRB5*0101 (DR2w2a) (Homo sapiens, UniProt P01903+Q30154); test: Class II peptide-binding assay, DR2w2a (DR2w2B2);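 further: competitive binding assay: unlabeled peptide inhibiting binding of a radiolabeled probe peptide to purified DR molecules at pH 7.0, IC50 approximating Kd, lower means stronger binding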
# T1 construct: used as sources of human HLA class II molecules; endogenous in cells; host or cells: GM3107 (EBV-transformed homozygous B cell line)
# [3] = molecular target: T2, DRB1*0301 (DR3w17) (Homo sapiens, UniProt P01903+P01911, A100K/A102G/A103R/A169T/F55Y/I96L/K41T/L162R/M171V/P40S/Q125H/Q178H/Q39Y/R42S/S66N/T106N/T262R/W38E/Y61H); test: Class II peptide-binding assay, DR3 (pH 4.5);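 further: unlabeled peptide competing with a radiolabeled probe peptide for binding to affinity-purified HLA-DR3, IC50 regarded as an approximation of Kd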
# T2 construct: used as sources of human HLA class II molecules; endogenous in cells; host or cells: MAT (EBV-transformed homozygous B cell line)
# [4] = molecular target: T3, DRB1*0101 (DR1) (Homo sapiens, UniProt P01903+P01911, A100R/D57E/F55L/F60I/F76Y/I96L/L162R/M171V/P40L/Q125E/R42F/V115G/Y59C); test: Class II peptide-binding assay, DR1;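 further: competition assay: unlabeled test peptides inhibit binding of a radiolabeled probe peptide to purified DR, with half-maximal inhibition taken as an approximate dissociation constant Kd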
# T3 construct: used as sources of human HLA class II molecules; endogenous in cells; host or cells: LG2 (EBV-transformed homozygous B cell line)
# Protocol: Class II peptide-binding assays. […] These assays were chosen as to be representative of the most common DR alleles.
# Radiolabeled peptides were iodinated using the chloramine-T method. […] In appropriate stoichiometric conditions, the IC50 of an unlabeled test peptide to the purified DR is a reasonable approximation of the affinity of interaction (Kd). Peptides were tested in two to four completely independent experiments. […] Final detergent concentration in the incubation mixture was 0.05% Nonidet P-40. Assays were performed at pH 7.0 with the exception of DR3, which was performed at pH 4.5, and DRw53, which was performed at pH 5.0.
# All subsequent inhibition and direct binding assays were the performed using these class II concentrations.
# [5] = molecular target: T4, DRB1*0401 (DR4w4) (Homo sapiens, UniProt P01903+P01911, A100K/A169T/F76Y/I96L/K127E/L162R/M171V/N62H/P40V/Q125Y/R42H/S133A/S149N/S66Y/V115G/V209L/W38E); test: Class II peptide-binding assay, DR4w4;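 further: unlabeled test peptides compete with a radiolabeled probe peptide for binding to affinity-purified HLA-DR, with DR amount titrated to capture a small fraction of label, IC50 approximating Kd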
# T4 construct: used as sources of human HLA class II molecules; endogenous in cells; host or cells: PREISS (EBV-transformed homozygous B cell line)
# [6] = molecular target: T5, DRB10404 (DR4w14) (Homo sapiens, UniProt P01903+P01911, A100R/A169T/F76Y/I96L/K127E/L162R/M171V/N62H/P40V/Q125Y/R42H/S133A/S149N/S66Y/V209L/W38E); test: Class II peptide-binding assay, DR4w14; conditions: read-out: DR4w14 nM (In IC50 Format); purified HLA DR4w14;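 further: unlabeled peptides compete with a radiolabeled probe for binding to affinity-purified HLA-DR, neutral pH, class II amount titrated to bind a small fraction of label, IC50 approximates Kd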
# T5 construct: used as sources of human HLA class II molecules; endogenous in cells; host or cells: BIN40 (EBV-transformed homozygous B cell line)
# [7] = molecular target: T6, DRB1*1101 (DR5w11) (Homo sapiens, UniProt P01903+P01911, A100R/A169T/A87E/I96F/K41T/L162R/M171V/P40S/Q125H/Q178H/Q39Y/Q99D/R42S/S66Y/T262R/V115G/W38E); test: Class II peptide-binding assay, DR5w11;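 further: competition by unlabeled test peptide against iodinated probe peptide binding to affinity-purified HLA-DR, class II amount titrated beforehand, half-maximal inhibitory concentration read as approximate Kd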
# T6 construct: used as sources of human HLA class II molecules; endogenous in cells; host or cells: SWEIG (EBV-transformed homozygous B cell line)
# [8] = read-out: DR3 nM (In IC50 Format), purified HLA DR3
# [9] = read-out: DR5w11 nM (In IC50 Format), purified HLA DR5w11
# [10] = read-out: DR1 nM (In IC50 Format), purified HLA DR1
# [11] = read-out: DR4w4 nM (In IC50 Format), purified HLA DR4w4
# [12] = read-out: In IC50 Format DR3, Table VIII
# [13] = read-out: DR7 nM (In IC50 Format), purified HLA DR7
# [14] = read-out: In IC50 Format DR3 nM, Table VIII, values in parentheses read as lower bounds
# T6 sequence (P01903 26-254, other chains not shown): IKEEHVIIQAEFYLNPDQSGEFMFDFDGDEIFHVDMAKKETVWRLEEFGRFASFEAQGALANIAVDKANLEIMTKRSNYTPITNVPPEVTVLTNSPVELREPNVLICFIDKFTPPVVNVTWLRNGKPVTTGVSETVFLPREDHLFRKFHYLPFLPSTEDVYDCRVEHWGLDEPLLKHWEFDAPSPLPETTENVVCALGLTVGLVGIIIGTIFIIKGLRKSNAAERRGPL
# T2 sequence (P01903 26-254, other chains not shown): as above
compound,measurement,setting,value
CC[C@H](C)[C@H](NC(=O)[C@H](CO)NC(=O)[C@H](CCC(=O)O)NC(=O)[C@H](CC(C)C)NC(=O)[C@H](C)NC(=O)[C@@H](N)CC(=O)O)C(=O)N[C@@H](CCSC)C(=O)N[C@H](C(=O)N[C@H](C(=O)N[C@@H](CCCCN)C(=O)N[C@@H](CO)C(=O)N[C@H](C(=O)N[C@@H](CO)C(=O)N[C@@H](Cc1ccccc1)C(=O)N[C@@H](CCCNC(=N)N)C(=O)O)C(C)C)[C@@H](C)O)[C@@H](C)O [Peptide 774.00],IC50,"[1]; purified HLA DR7, read-out: DR7 nM (In IC50 Format)",84.1 nM
same,IC50,"[2]; purified HLA DR2w2β2, read-out: DR2w2B2 nM (In IC50 Format)",20000 nM
same,IC50,"[3]; purified HLA DR3, read-out: DR3 nM (In IC50 Format)",33300 nM
same,IC50,"[4]; purified HLA DR1, read-out: DR1 nM (In IC50 Format)",385 nM
same,IC50,"[5]; purified HLA DR4w4, read-out: DR4w4 nM (In IC50 Format)",110 nM
YAEFQAEKTLKAAS-NH2 [Peptide 717.05],IC50,"[2]; read-out: DR2w2B2 nM (In IC50 Format), purified HLA DR2w2β2",339 nM
same,IC50,[6],29.4 nM
same,IC50,[3]; [8],4000 nM
same,IC50,[7]; [9],48.8 nM
same,IC50,[4]; [10],8.2 nM
same,IC50,[5]; [11],6.4 nM
CC[C@H](C)[C@H](NC(=O)[C@H](CC(N)=O)NC(=O)[C@H](CCCCN)NC(=O)[C@H](Cc1ccccc1)NC(=O)[C@H](Cc1ccccc1)NC(=O)[C@H](Cc1c[nH]cn1)NC(=O)[C@@H](NC(=O)[C@@H](NC(=O)[C@@H]1CCCN1C(=O)[C@H](CC(N)=O)NC(=O)[C@H](CCC(=O)O)NC(=O)[C@H](CC(=O)O)NC(=O)[C@H](CCC(N)=O)NC(=O)[C@@H](NC(=O)[C@H](CCCNC(=N)N)NC(=O)CN)[C@@H](C)O)C(C)C)C(C)C)C(=O)N[C@H](C(=O)N[C@H](C(=O)N1CCC[C@H]1C(=O)N[C@@H](CCCNC(=N)N)C(=O)O)[C@@H](C)O)C(C)C [Peptide 507.02],IC50,"[1]; read-out: In IC50 Format DR7, Table VIII",1000 nM
same,IC50,"[2]; read-out: In IC50 Format DR2w2β2, Table VIII",250 nM
same,IC50,[3]; [12],60000 nM
same,IC50,"[7]; read-out: In IC50 Format DR5w11, Table VIII",133 nM
same,IC50,"[4]; read-out: In IC50 Format DR1, Table VIII",17.2 nM
same,IC50,"[5]; read-out: In IC50 Format DR4w4, Table VIII",5.8 nM
CSCC[C@H](NC(=O)[C@H](CC(C)C)NC(=O)[C@H](CCC(=O)O)NC(=O)CNC(=O)[C@H](Cc1c[nH]c2ccccc12)NC(=O)[C@@H](N)CS)C(=O)N[C@H](C(=O)N[C@@H](CC(C)C)C(=O)N[C@@H](C)C(=O)N[C@H](C(=O)N[C@@H](Cc1c[nH]c2ccccc12)C(=O)N[C@H](C(=O)NCC(=O)N[C@H](C(=O)N[C@@H](CC(N)=O)C(=O)N[C@@H](CC(C)C)C(=O)N[C@@H](CCC(=O)O)C(=O)N[C@@H](CC(=O)O)C(=O)O)C(C)C)C(C)C)[C@@H](C)O)[C@@H](C)O [Peptide 802.02],IC50,[1]; [13],6250 nM
same,IC50,[6],90.7 nM
same,IC50,[3]; [8],100000 nM
same,IC50,[7]; [9],5000 nM
same,IC50,[4]; [10],357 nM
same,IC50,[5]; [11],738 nM
CC[C@H](C)[C@H](NC(=O)[C@H](C)NC(=O)[C@@H](N)CC(C)C)C(=O)N[C@H](C(=O)N[C@@H](C)C(=O)N[C@@H](CCCNC(=N)N)C(=O)N[C@@H](CCC(=O)O)C(=O)NCC(=O)N[C@@H](CC(=O)O)C(=O)N[C@@H](CS)C(=O)N[C@@H](C)C(=O)N1CCC[C@H]1C(=O)N[C@@H](CCC(=O)O)C(=O)N[C@@H](CCC(=O)O)C(=O)N[C@@H](CCCCN)C(=O)O)[C@@H](C)CC [Peptide 39.0405],IC50,[3]; [12],> 120000 nM
LVTYNTDTFESMPNP [Peptide 39.0345],IC50,[3]; [14],> 111000 nM
MRRLLQETELVEPLT [Peptide 39.0360],IC50,[3]; [14],> 111000 nM
CSCC[C@H](N)C(=O)NCC(=O)N[C@@H](CCC(N)=O)C(=O)N[C@@H](CC(N)=O)C(=O)N[C@@H](CC(C)C)C(=O)N[C@@H](CO)C(=O)N[C@H](C(=O)N[C@@H](CO)C(=O)N[C@@H](CC(N)=O)C(=O)N1CCC[C@H]1C(=O)N[C@@H](CC(C)C)C(=O)NCC(=O)N[C@@H](Cc1ccccc1)C(=O)N[C@@H](Cc1ccccc1)C(=O)N1CCC[C@H]1C(=O)N[C@@H](CC(=O)O)C(=O)N[C@@H](Cc1c[nH]cn1)C(=O)O)[C@@H](C)O [Peptide 800.01],IC50,[1]; [13],154 nM
same,IC50,[6],2000 nM
same,IC50,[3]; [8],6820 nM
same,IC50,[7]; [9],2000 nM
same,IC50,[4]; [10],94.3 nM
same,IC50,[5]; [11],68.8 nM
C[C@H](NC(=O)CNC(=O)CNC(=O)[C@@H](N)CCC(N)=O)C(=O)N[C@@H](C)C(=O)N1CCC[C@H]1C(=O)N[C@@H](CCC(N)=O)C(=O)N1CCC[C@H]1C(=O)N[C@@H](Cc1c[nH]cn1)C(=O)N1CCC[C@H]1C(=O)N1CCC[C@H]1C(=O)N1CCC[C@H]1C(=O)N[C@@H](C)C(=O)N[C@@H](Cc1ccccc1)C(=O)N[C@@H](CO)C(=O)O [Peptide 39.0382],IC50,[3]; [14],> 120000 nM
CC[C@H](C)[C@H](NC(=O)[C@H](CC(=O)O)NC(=O)[C@H](CC(=O)O)NC(=O)[C@@H]1CCCN1C(=O)[C@H](CO)NC(=O)[C@H](CC(C)C)NC(=O)[C@H](CCSC)NC(=O)[C@H](CC(C)C)NC(=O)[C@@H](N)CC(=O)O)C(=O)N[C@@H](CCC(=O)O)C(=O)N[C@@H](CCC(N)=O)C(=O)N[C@@H](Cc1c[nH]c2ccccc12)C(=O)N[C@@H](Cc1ccccc1)C(=O)N[C@H](C(=O)N[C@@H](CCC(=O)O)C(=O)O)[C@@H](C)O [Peptide 39.0411],IC50,[3]; [12],20000 nM
KNGVVKDVFAFGGAV [Peptide 39.0381],IC50,[3]; [14],> 120000 nM
C[C@H](NC(=O)[C@H](CCC(=O)O)NC(=O)[C@H](CC(=O)O)NC(=O)[C@@H]1CCCN1C(=O)CNC(=O)[C@@H]1CCCN1C(=O)[C@H](CC(=O)O)NC(=O)[C@H](CCC(=O)O)NC(=O)[C@@H](NC(=O)[C@H](Cc1ccccc1)NC(=O)[C@H](Cc1c[nH]c2ccccc12)NC(=O)[C@H](CCC(N)=O)NC(=O)[C@@H](N)CCC(=O)O)[C@@H](C)O)C(=O)N1CCC[C@H]1C(=O)N[C@@H](CCCNC(=N)N)C(=O)O [Peptide 39.0412],IC50,[3]; [12],> 120000 nM
CSCC[C@H](NC(=O)[C@H](CCCNC(=N)N)NC(=O)[C@H](CO)NC(=O)[C@H](Cc1ccccc1)NC(=O)[C@H](CCC(=O)O)NC(=O)[C@H](CO)NC(=O)[C@@H](NC(=O)[C@H](CC(C)C)NC(=O)[C@H](CCC(=O)O)NC(=O)[C@H](CCCNC(=N)N)NC(=O)[C@@H](N)Cc1ccccc1)C(C)C)C(=O)N[C@@H](C)C(=O)N[C@@H](CCCNC(=N)N)C(=O)N[C@@H](CC(=O)O)C(=O)N1CCC[C@H]1C(=O)O [Peptide 39.0370],IC50,"[3]; Table VIII, values in parentheses read as lower bounds, read-out: In IC50 Format DR3",4230 nM
CSCC[C@H](NC(=O)CNC(=O)[C@H](CC(C)C)NC(=O)CNC(=O)[C@H](Cc1ccc(O)cc1)NC(=O)[C@@H](N)CS)C(=O)N[C@@H](CCC(=O)O)C(=O)N[C@@H](Cc1c[nH]cn1)C(=O)N[C@@H](CC(C)C)C(=O)N[C@@H](CCCNC(=N)N)C(=O)N[C@@H](CCC(=O)O)C(=O)N[C@H](C(=O)N[C@@H](CCCNC(=N)N)C(=O)N[C@@H](C)C(=O)N[C@H](C(=O)O)C(C)C)C(C)C [Peptide 39.0348],IC50,[3]; [14],36100 nM
ETEYHADGGKVPIKW [Peptide 39.0367],IC50,[3]; [14],> 111000 nM
CC(C)C[C@H](NC(=O)[C@H](CCC(N)=O)NC(=O)[C@@H](NC(=O)[C@@H]1CCCN1)C(C)C)C(=O)N[C@@H](Cc1c[nH]c2ccccc12)C(=O)N[C@H](C(=O)N[C@@H](CC(=O)O)C(=O)N[C@@H](CO)C(=O)N[C@H](C(=O)N1CCC[C@H]1C(=O)N1CCC[C@H]1C(=O)N1CCC[C@H]1C(=O)NCC(=O)N[C@H](C(=O)N[C@@H](CCCNC(=N)N)C(=O)O)[C@@H](C)O)[C@@H](C)O)C(C)C [Peptide 39.0413],IC50,[3]; [12],10000 nM

# From patent EP1388586A2, “Identification of broadly reactive DR restricted epitopes” (priority 1998, dated 1999)
